Assay results published in PMC9230201, “Sustained Consumption of a Decaffeinated Green Coffee Nutraceutical Has Limited Effects on Phenolic Metabolism and Bioavailability in Overweight/Obese Subjects” (Nutrients, 2022).
“And” between values parts separate entries of the source, which are not always exact repeats. Identical values can stand only once.

Experiments:
[1] = Fecal excretion of phenolic metabolites after intake of the GCPE nutraceutical; conditions: feces
Experimental: (§1) Participants attended the Human Nutrition Unit (HNU) at the Institute of Food Science, Technology and Nutrition (ICTAN-CSIC) on two consecutive days at the beginning of the intervention (week 0) and also on two consecutive days at the end of the study, after consuming daily two doses of the GCPE nutraceutical, providing 600 mg/d phenols, during two months (week 8). […] A licensed health care professional placed an intravenous catheter in the subjects′ nondominant arm and collected a fasting blood sample (baseline, 0 h). Then, subjects drank the soluble GCPE nutraceutical dissolved in 200 mL of water. […] On the sampling days, volunteers remained at the HNU, where a (poly)phenol-free diet was provided. Half an hour after consuming the nutraceutical, volunteers ate a breakfast consisting of ham, cheese, white bread, and a yogurt. Lunch (paella, bread, and yogurt) and an afternoon snack (muffin and yogurt) were eaten 5 and 9 h, respectively, after consuming the nutraceutical. Water and isotonic beverages were freely available. […] The same protocol was followed during visits at the end of the 8-week intervention. On each occasion, two days before each visit to the HNU, subjects consumed a low (poly)phenol diet free of foods containing hydroxycinnamates such as coffee, herbal teas, red wine, artichokes, whole grain cereals, vegetables, fruits and fruit juices, and dried fruits. Only banana, watermelon, cantaloupes, and potatoes were allowed.
(§2) Blood samples were immediately centrifuged (10 min, 3000 rpm, 4 °C) to obtain plasma. […] All biological samples were stored at −80 °C until analysis.
(§3) To extract plasma metabolites, 10 µL of 50% (v/v) aqueous formic acid, and 900 µL cold acetonitrile containing 50 µL of 10% (w/v) ascorbic acid were added to 400 µL defrosted plasma. Samples were vortexed and centrifuged (14,000 rpm, 10 min, 4 °C), repeating the extraction and combining the two supernatants, which were reduced to dryness under nitrogen [13]. Dried samples were resuspended in 150 µL of 0.1% aqueous formic acid (containing 10% acetonitrile acidified with 0.1% formic acid), centrifuged (15 min, 14,000 rpm, 4 °C), and the supernatant collected. Urine samples were diluted 1:1 with Milli-Q water and centrifuged (14,000 rpm, 20 min, 4 °C) prior to analysis. Phosphate-buffered saline (3 mL) was added to a representative 300 mg sample of thawed feces, homogenized in an ultrasound bath during 10 min, centrifuged (14,000 rpm, 20 min, 4 °C), and the supernatants collected.
(§4) Mobile phase A was 0.1% formic acid in Milli-Q water, and mobile phase B was acetonitrile containing 0.1% formic acid at a 0.3 mL/min flow rate. […] Metabolites were identified based on their retention time using authentic standards when possible. […] Urine concentration of excreted metabolites was normalized to the total volume excreted in each studied interval.
(§5) Plasma (30 µL), urine (5 µL) and fecal extracts (5 µL) were filtered through 0.45 µm
(§6) cellulose-acetate membrane filters and injected into an Agilent 1200 series LC system
(§7) ESI-Jet Stream Technology (Agilent Technologies). A reverse-phase Ascentis Express
(§8) C18 (15 cm x 3 mm, 2.7 µm) column (Sigma-Aldrich Quimica, Madrid), preceded by a
(§9) phase A was 0.1% formic acid in Milli-Q water, and mobile phase B was acetonitrile
(§10) containing 0.1% formic acid at a 0.3 mL/min flow rate. The gradient started with 10% B
(§11) at 0 min, 30% B at 10 min, 40% B at 15 min, reaching 50% B at 20 min. The starting
(§12) gradient was then re-established in 2 min and maintained for 8 min to re-equilibrate the

[2] = Urinary excretion of phenolic metabolites after intake of the GCPE nutraceutical; conditions: for Cumulative urinary excretion, Total 0–24 h / Urinary excretion: urine; for Cumulative urinary excretion, Total 0–24 h: mean ± SEM, n = 9
Experimental: as §1, §2, §3, §4, §5, §6, §7, §8, §9, §10, §11, §12

[3] = Plasma pharmacokinetics of phenolic metabolites after intake of the GCPE nutraceutical (LC-MS-QToF); conditions: for AUC(0-t) / Tmax: 300 mg hydroxycinnamic acids; for AUC(0-t): AUC0–24h; for Tmax: Tmax (h) or Range; for Cmax: mean ± SEM, n = 9
Experimental: Participants attended the Human Nutrition Unit (HNU) at the Institute of Food Science, Technology and Nutrition (ICTAN-CSIC) on two consecutive days at the beginning of the intervention (week 0) and also on two consecutive days at the end of the study, after consuming daily two doses of the GCPE nutraceutical, providing 600 mg/d phenols, during two months (week 8). On each occasion, on the first visit day (Figure 1), subjects arrived at the HNU after an overnight (12 h) fast and provided a urine sample. A licensed health care professional placed an intravenous catheter in the subjects′ nondominant arm and collected a fasting blood sample (baseline, 0 h). Then, subjects drank the soluble GCPE nutraceutical dissolved in 200 mL of water. Subsequently, blood samples were collected in EDTA-coated tubes at 0.5, 1, 1.5, 2, 3, 4, 6, 8, 10, and 11 h. On the sampling days, volunteers remained at the HNU, where a (poly)phenol-free diet was provided. Half an hour after consuming the nutraceutical, volunteers ate a breakfast consisting of ham, cheese, white bread, and a yogurt. Lunch (paella, bread, and yogurt) and an afternoon snack (muffin and yogurt) were eaten 5 and 9 h, respectively, after consuming the nutraceutical. Water and isotonic beverages were freely available. Volunteers were instructed to eat a (poly)phenol-free dinner that night and to attend the HNU on the next day after a 12 h fast. Then, a final blood sample was obtained from the antecubital vein 24 h after consuming the nutraceutical. The same protocol was followed during visits at the end of the 8-week intervention. On each occasion, two days before each visit to the HNU, subjects consumed a low (poly)phenol diet free of foods containing hydroxycinnamates such as coffee, herbal teas, red wine, artichokes, whole grain cereals, vegetables, fruits and fruit juices, and dried fruits. Only banana, watermelon, cantaloupes, and potatoes were allowed.
as §2
To extract plasma metabolites, 10 µL of 50% (v/v) aqueous formic acid, and 900 µL cold acetonitrile containing 50 µL of 10% (w/v) ascorbic acid were added to 400 µL defrosted plasma. Samples were vortexed and centrifuged (14,000 rpm, 10 min, 4 °C), repeating the extraction and combining the two supernatants, which were reduced to dryness under nitrogen [13]. Dried samples were resuspended in 150 µL of 0.1% aqueous formic acid (containing 10% acetonitrile acidified with 0.1% formic acid), centrifuged (15 min, 14,000 rpm, 4 °C), and the supernatant collected.
A reverse-phase Ascentis Express C18 (15 cm × 3 mm, 2.7 µm) column (Sigma-Aldrich Quimica, Madrid, Spain), preceded by a Supelco 55215-U guard column (3 mm × 5 mm, 2.7 µm), was used for separation. Mobile phase A was 0.1% formic acid in Milli-Q water, and mobile phase B was acetonitrile containing 0.1% formic acid at a 0.3 mL/min flow rate. […] Metabolites were identified based on their retention time using authentic standards when possible.

[4] = week 0, GCPE nutraceutical with 300 mg hydroxycinnamic acids
[5] = week 0, first peak where biphasic
[6] = week 8, GCPE nutraceutical with 300 mg hydroxycinnamic acids
[7] = week 8, first peak where biphasic

Row | Structure (SMILES) | Amount of fecal metabolite excreted at 24 h ([1]; week 8) | Cumulative urinary excretion, Total 0–24 h ([2]; week 0) | Cumulative urinary excretion, Total 0–24 h ([2]; week 8) | Amount excreted in urine, 0- 3 h ([2]; week 0, interval 0–3 h) | Amount excreted in urine, 3-6 h ([2]; week 0, interval 3–6 h) | Amount excreted in urine, 6-9 h ([2]; week 0, interval 6–9 h) | Amount excreted in urine, 9-11 h ([2]; week 0, interval 9–11 h) | Amount excreted in urine, 11-24 h ([2]; week 0, interval 11–24 h) | Amount excreted in urine, 0- 3 h ([2]; week 8, interval 0–3 h) | Amount excreted in urine, 3-6 h ([2]; week 8, interval 3–6 h) | Amount excreted in urine, 6-9 h ([2]; week 8, interval 6–9 h) | Amount excreted in urine, 9-11 h ([2]; week 8, interval 9–11 h) | Amount excreted in urine, 11-24 h ([2]; week 8, interval 11–24 h) | Amount of fecal metabolite excreted at 0 h ([1]; week 0, mean ± SEM, n = 9) | Amount of fecal metabolite excreted at 0 h ([1]; week 8) | Amount of fecal metabolite excreted at 24 h ([1]; week 0) | further results
1 | O=C(O)/C=C/c1ccc(O)c(O)c1 [CA, 3′,4′-Dihydroxycinnamic acid] | 0.003 ± 0.003 µmol/g | 0.42 ± 0.06 µmol | 0.45 ± 0.09 µmol | 0.13 ± 0.03 µmol | 0.08 ± 0.02 µmol | 0.08 ± 0.03 µmol | 0.023 ± 0.008 µmol | 0.12 ± 0.02 µmol | 0.12 ± 0.03 µmol | 0.06 ± 0.01 µmol | 0.11 ± 0.02 µmol | 0.06 ± 0.03 µmol | 0.11 ± 0.03 µmol | – | 0.003 ± 0.002 µmol/g | 0.0003 ± 0.0003 µmol/g | –
2 | COc1cc(/C=C/C(=O)O[C@@H]2C[C@@](O)(C(=O)O)C[C@@H](O)[C@@H]2O)ccc1O [3-Feruloylquinic acid] | 0.003 ± 0.002 µmol/g | 0.29 ± 0.07 µmol | 0.34 ± 0.07 µmol | 0.15 ± 0.04 µmol | 0.1 ± 0.04 µmol | 0.021 ± 0.006 µmol | 0.007 ± 0.004 µmol | 0.01 ± 0.005 µmol | 0.19 ± 0.04 µmol | 0.08 ± 0.02 µmol | 0.05 ± 0.01 µmol | 0.014 ± 0.008 µmol | 0.015 ± 0.007 µmol | 0.003 ± 0.003 µmol/g | 0.0010 ± 0.0007 µmol/g | 0.003 ± 0.003 µmol/g | –
3 | COc1cc(C(=O)O)ccc1O [4-Hydroxy-3-methoxybenzoic acid] | – | – | – | – | – | – | – | – | – | – | – | – | – | 0.06 ± 0.03 µmol/g | 0.006 ± 0.006 µmol/g | – | AUC(0-t) ([3]; human, oral, week 0): 9 ± 2 µM·h; AUC(0-t) ([3]; human, oral, week 8): 14 ± 4 µM·h; Tmax ([3]; human, oral, week 0, first peak where biphasic): 7 ± 3 h; Tmax ([3]; human, oral, week 8, first peak where biphasic): 7 ± 2 h; Cmax ([3]; human, oral, 300 mg, Cmax, week 0, GCPE nutraceutical with 300 mg hydroxycinnamic acids): 1100 ± 200 nM; Cmax ([3]; human, oral, 300 mg, Cmax, week 8, GCPE nutraceutical with 300 mg hydroxycinnamic acids): 1600 ± 400 nM
4 | O=C(O)c1ccc(O)c(O)c1 [3,4-Dihydroxybenzoic acid] | 0.04 ± 0.01 µmol/g | 0.13 ± 0.02 µmol | 0.18 ± 0.04 µmol | 0.016 ± 0.005 µmol | 0.007 ± 0.003 µmol | 0.017 ± 0.005 µmol | 0.018 ± 0.006 µmol | 0.035 ± 0.009 µmol | 0.03 ± 0.01 µmol | 0.014 ± 0.003 µmol | 0.027 ± 0.007 µmol | 0.018 ± 0.007 µmol | 0.03 ± 0.009 µmol | 0.016 ± 0.006 µmol/g | 0.026 ± 0.008 µmol/g | 0.018 ± 0.005 µmol/g | Amount of fecal metabolite excreted at 0 h ([1]; week 0, mean ± SEM, n = 9, listed as 3,4-dihydroxybenzoic acid): 0.016 µmol/g; Amount of fecal metabolite excreted at 0 h ([1]; week 8, listed as 3,4-dihydroxybenzoic acid): 0.026 µmol/g
5 | O=C(O)CCc1ccc(OS(=O)(=O)O)c(O)c1 [DHCA-4′-sulfate, 3-(3′-Hydroxyphenyl)propanoic acid-4′-sulfate] | – | 8 ± 2 µmol | 10 ± 2 µmol | 0.4 ± 0.1 µmol | 0.2 ± 0.04 µmol | 0.5 ± 0.2 µmol | 0.5 ± 0.2 µmol | 2.6 ± 0.8 µmol | 0.6 ± 0.2 µmol | 0.2 ± 0.04 µmol | 0.5 ± 0.1 µmol | 0.6 ± 0.2 µmol | 1.7 ± 0.5 µmol | – | – | – | Urinary excretion ([2]; week 0): 8 µmol/24 h; Urinary excretion ([2]; week 8): 10 µmol/24 h; AUC0–24h ([3]; week 0): 2.3 ± 0.5 µM/min; Cmax [3, 4]: 340 ± 90 nM; Tmax (h) or Range [3, 5]: 7.9 ± 0.5 h; AUC0–24h ([3]; week 8): 2.1 ± 0.4 µM/min; Cmax [3, 6]: 330 ± 70 nM; Tmax (h) or Range [3, 7]: 8.4 ± 0.6 h
6 | O=C(O)/C=C/c1ccc(O)cc1 [CoA, 4′-Hydroxycinnamic acid] | 0.003 ± 0.001 µmol/g | – | – | – | – | – | – | – | – | – | – | – | – | – | 0.006 ± 0.004 µmol/g | 0.002 ± 0.002 µmol/g | –
7 | COc1cc(CCC(=O)O)ccc1OS(=O)(=O)O [DHFA-4′-sulfate, 3-(3′-Methoxyphenyl)propanoic acid-4′-sulfate] | – | 10 ± 2 µmol | 9 ± 2 µmol | 0.5 ± 0.1 µmol | 0.5 ± 0.1 µmol | 3.4 ± 1.2 µmol | 2.1 ± 0.5 µmol | 3.5 ± 0.8 µmol | 0.6 ± 0.1 µmol | 0.8 ± 0.2 µmol | 2 ± 1 µmol | 3 ± 1 µmol | 2.6 ± 0.8 µmol | – | – | – | AUC0–24h ([3]; week 0): 1.5 ± 0.7 µM/min; Cmax [3, 4]: 190 ± 80 nM; Tmax (h) or Range [3, 5]: 8.1 ± 0.4 h; AUC0–24h ([3]; week 8): 1.1 ± 0.3 µM/min; Cmax [3, 6]: 170 ± 50 nM; Tmax (h) or Range [3, 7]: 8.4 ± 0.6 h
8 | O=C(CCc1ccc(O)c(O)c1)OC1CC(O)(C(=O)O)CC(O)C1O (stereo not shown) [5-Dihydrocaffeoylquinic acid] | 0.08 ± 0.02 µmol/g | 0.03 ± 0.02 µmol | 0.03 ± 0.01 µmol | 0.012 ± 0.006 µmol | 0.005 ± 0.003 µmol | 0.003 ± 0.002 µmol | 0.003 ± 0.002 µmol | 0.01 ± 0.004 µmol | 0.004 ± 0.003 µmol | 0.002 ± 0.001 µmol | 0.002 ± 0.002 µmol | 0.002 ± 0.002 µmol | 0.015 ± 0.008 µmol | 0.04 ± 0.01 µmol/g | 0.06 ± 0.02 µmol/g | 0.05 ± 0.01 µmol/g | –

The next lines start with results.

Row | Amount of fecal metabolite excreted at 24 h ([1]; week 8) | Cumulative urinary excretion, Total 0–24 h ([2]; week 0) | Cumulative urinary excretion, Total 0–24 h ([2]; week 8) | Amount excreted in urine, 0- 3 h ([2]; week 0, interval 0–3 h) | Amount excreted in urine, 3-6 h ([2]; week 0, interval 3–6 h) | Amount excreted in urine, 6-9 h ([2]; week 0, interval 6–9 h) | Amount excreted in urine, 9-11 h ([2]; week 0, interval 9–11 h) | Amount excreted in urine, 11-24 h ([2]; week 0, interval 11–24 h) | Amount excreted in urine, 0- 3 h ([2]; week 8, interval 0–3 h) | Amount excreted in urine, 3-6 h ([2]; week 8, interval 3–6 h) | Amount excreted in urine, 6-9 h ([2]; week 8, interval 6–9 h) | Amount excreted in urine, 9-11 h ([2]; week 8, interval 9–11 h) | Amount excreted in urine, 11-24 h ([2]; week 8, interval 11–24 h) | Amount of fecal metabolite excreted at 0 h ([1]; week 0, mean ± SEM, n = 9) | Amount of fecal metabolite excreted at 0 h ([1]; week 8) | Amount of fecal metabolite excreted at 24 h ([1]; week 0) | Structure (SMILES) | further results
9 | 0.010 ± 0.008 µmol/g | 1.2 ± 0.2 µmol | 1.3 ± 0.2 µmol | 0.12 ± 0.03 µmol | 0.08 ± 0.03 µmol | 0.11 ± 0.05 µmol | 0.06 ± 0.02 µmol | 0.38 ± 0.04 µmol | 0.15 ± 0.03 µmol | 0.05 ± 0.02 µmol | 0.08 ± 0.02 µmol | 0.09 ± 0.03 µmol | 0.31 ± 0.03 µmol | – | – | – | O=C(O)Cc1ccc(O)c(O)c1 [3′,4′-Dihydroxyphenylacetic acid] | –
10 | 0.25 ± 0.07 µmol/g | – | – | – | – | – | – | – | – | – | – | – | – | 0.21 µmol/g and 0.21 ± 0.07 µmol/g | 0.4 µmol/g and 0.4 ± 0.1 µmol/g | 0.24 ± 0.07 µmol/g | O=C(O)CCc1cccc(O)c1 [DHiCoA, 3-(3′-Hydroxyphenyl)propanoic acid] | –
11 | 0.014 ± 0.005 µmol/g | 4 ± 1 µmol | 6 ± 2 µmol | 0.16 ± 0.04 µmol | 0.09 ± 0.02 µmol | 0.5 ± 0.2 µmol | 0.6 ± 0.2 µmol | 1.4 ± 0.4 µmol | 0.4 ± 0.2 µmol | 0.3 ± 0.1 µmol | 0.9 ± 0.3 µmol | 0.8 ± 0.3 µmol | 1 ± 0.2 µmol | 0.005 ± 0.003 µmol/g | 0.006 ± 0.006 µmol/g | 0.005 ± 0.005 µmol/g | O=C(O)CCc1ccc(O)cc1 [DHCoA, 3-(4′-Hydroxyphenyl)propanoic acid] | Urinary excretion ([2]; week 0): 4 µmol/24 h; Urinary excretion ([2]; week 8): 6 µmol/24 h
12 | – | 32 ± 5 µmol | 46 ± 8 µmol | 3 ± 2 µmol | 1.1 ± 0.2 µmol | 4 ± 1 µmol | 5 ± 1 µmol | 11 ± 2 µmol | 4 ± 1 µmol | 2.6 ± 0.7 µmol | 6 ± 2 µmol | 5 ± 1 µmol | 9 ± 2 µmol | – | – | – | O=C(O)CNC(=O)c1cccc(O)c1 [3′-Hydroxyhippuric acid] | Cumulative urinary excretion, Total 0–24 h ([2]; week 0, listed as 3′-hydroxyhippuric acid): 32 µmol; Cumulative urinary excretion, Total 0–24 h ([2]; week 8, listed as 3′-hydroxyhippuric acid): 46 µmol; Amount excreted in urine, TOTAL ([2]; week 0, Table S5 total): 32 ± 5 µmol; Amount excreted in urine, 0 h ([2]; week 8, 0 h (before intake on sampling day)): 18 ± 5 µmol; Amount excreted in urine, TOTAL ([2]; week 8, Table S6 total): 46 ± 8 µmol; AUC0–24h ([3]; week 0): 10 ± 3 µM/min; Cmax [3, 4]: 1100 ± 300 nM; Tmax (h) or Range [3, 5]: 10.0 ± 0.4 h; AUC0–24h ([3]; week 8): 13 ± 3 µM/min; Cmax [3, 6]: 1300 ± 200 nM; Tmax (h) or Range [3, 7]: 9.2 ± 0.5 h
